The results in this text go back to ChEMBL document CHEMBL1148357, “Novel dicationic imidazo[1,2-a]pyridines and 5,6,7,8-tetrahydro-imidazo[1,2-a]pyridines as antiprotozoal agents” (J Med Chem, 2004).

The term IC50 denotes the concentration that inhibits the measured activity by half. Higher therefore signals a need for much substance.

In the first assay the test system is Mus musculus. Briefly: In vivo average survival days of mice infected by Trypanosoma brucei rhodesiense was determined for a period of 60 days at i.p. dose of 10 mg/kg. Type of assay: functional. Particulars: route intraperitoneal.
`N=C(N)c1ccc(-c2ccc(-c3cn4c(n3)CCC(C(=N)N)C4)cc2)cc1` (stereo not drawn) came in with a Survival greater than 51.5 days.

The subject of the next assay is Nucleic Acid. In words: In vitro binding affinity towards Poly (dA-dT)2. Type of assay: nucleic-acid assay.
Settings: not given
Regarding `Cc1cc(C(=N)N)cn2cc(-c3ccc(-c4ccc(C(=N)N)cc4)o3)nc12`, the ΔTm was greater than 27.
Still for that read-out and setting: with `N=C(N)c1ccc(-c2ccc(-c3cn4c(n3)CCC(C(=N)N)C4)o2)cc1` (stereo not drawn) the figure was 15.6; with `N=C(N)c1ccc(-c2ccc(-c3cn4cc(C(=N)N)ccc4n3)o2)cc1`, 26.2.
Still for that read-out and setting: with `N=C(N)c1ccc(-c2cccc(-c3cn4cc(C(=N)N)ccc4n3)c2)cc1` the figure was greater than 27; with `N=C(N)c1ccc(-c2cccc(-c3cn4c(n3)CCC(C(=N)N)C4)c2)cc1` (stereo not drawn), 19.1; with `CONC(=N)c1ccc(-c2ccc(-c3ccc(C(=N)NOC)cc3)o2)cc1` [PAFURAMIDINE], 25.
Same read-out and setting: with `N=C(N)c1ccc(-c2ccc(-c3cn4cc(C(=N)N)ccc4n3)cc2)cc1` the figure was 24.2; with `CONC(=N)c1ccc(-c2ccc(-c3cn4cc(C(=N)NOC)ccc4n3)cc2)cc1`, 0.3; with `Cc1cc(C(=N)N)cn2cc(-c3cccc(-c4ccc(C(=N)N)cc4)c3)nc12`, greater than 27.
Take `N=C(N)c1ccc(-c2ccc(-c3cn4c(n3)CCC(C(=N)N)C4)cc2)cc1` (stereo not drawn): the ΔTm was found to be 21.3.

The next assay concerns Mus musculus. Briefly: In vivo average survival days of mice infected by Trypanosoma brucei rhodesiense was determined for a period of 60 days at i.p. dose of 20 mg/kg. Type of assay: functional. Particulars: route intraperitoneal.
For `Cc1cc(C(=N)N)cn2cc(-c3ccc(-c4ccc(C(=N)N)cc4)o3)nc12`, the Survival was greater than 60 days.
The same measure, in the same setting: with `N=C(N)c1ccc(-c2ccc(-c3cn4c(n3)CCC(C(=N)N)C4)o2)cc1` (stereo not drawn) the figure was greater than 60 days.
The same measure, in the same setting: with `N=C(N)c1ccc(-c2ccc(-c3cn4cc(C(=N)N)ccc4n3)o2)cc1` the figure was greater than 60 days.
The same measure, in the same setting: with `N=C(N)c1ccc(-c2cccc(-c3cn4cc(C(=N)N)ccc4n3)c2)cc1` the figure was greater than 60 days; with `N=C(N)c1ccc(-c2ccc(-c3cn4cc(C(=N)N)ccc4n3)cc2)cc1`, greater than 60 days; with `Cc1cc(C(=N)N)cn2cc(-c3cccc(-c4ccc(C(=N)N)cc4)c3)nc12`, greater than 50 days.

In another assay the test system is Trypanosoma brucei rhodesiense. Briefly: In vitro inhibitory activity against Trypanosoma brucei rhodesiense. Type of assay: functional, organism-based.
Settings: not given
`Cc1cc(C(=N)N)cn2cc(-c3ccc(-c4ccc(C(=N)N)cc4)o3)nc12` yielded an IC50 of 6 nM.
As for `N=C(N)c1ccc(-c2ccc(-c3cn4c(n3)CCC(C(=N)N)C4)o2)cc1` (stereo not drawn), the half-inhibitory concentration (IC50) was 52 nM.
Turning to `N=C(N)c1ccc(-c2ccc(-c3cn4cc(C(=N)N)ccc4n3)o2)cc1`, the IC50 worked out at 63 nM.
Same read-out and setting: under `N=C(N)c1ccc(-c2cccc(-c3cn4cc(C(=N)N)ccc4n3)c2)cc1` stands 22 nM; under `N=C(N)c1ccc(-c2cccc(-c3cn4c(n3)CCC(C(=N)N)C4)c2)cc1` (stereo not drawn), 226 nM; under `CONC(=N)c1ccc(-c2ccc(-c3ccc(C(=N)NOC)cc3)o2)cc1` [PAFURAMIDINE], 4.5 nM.
`N=C(NO)c1ccc(-c2ccc(-c3cn4cc(/C(N)=N/O)ccc4n3)o2)cc1` returned an IC50 of 2200 nM.
Still for that read-out and setting: with `N=C(N)c1ccc(-c2ccc(-c3cn4cc(C(=N)N)ccc4n3)cc2)cc1` the figure was 1 nM; with `CONC(=N)c1ccc(-c2ccc(-c3cn4cc(C(=N)NOC)ccc4n3)o2)cc1`, 3000 nM.
`CONC(=N)c1ccc(-c2ccc(-c3cn4cc(C(=N)NOC)ccc4n3)cc2)cc1` returned an IC50 of 5300 nM.
Still for that read-out and setting: with `Cc1cc(C(=N)N)cn2cc(-c3cccc(-c4ccc(C(=N)N)cc4)c3)nc12` the figure was 49 nM.
Still for that read-out and setting: under `N=C(N)c1ccc(-c2ccc(-c3cn4c(n3)CCC(C(=N)N)C4)cc2)cc1` (stereo not drawn) stands 116 nM.

In another assay the test system is Mus musculus. Briefly: In vivo average survival days of mice infected by Trypanosoma brucei rhodesiense was determined for a period of 60 days at i.p. dose of 5 mg/kg. Type of assay: functional. The following applies: route intraperitoneal.
Compound `N=C(N)c1ccc(-c2ccc(-c3cn4c(n3)CCC(C(=N)N)C4)o2)cc1` (stereo not drawn) gave a Survival greater than 51 days.

Another assay deals with Plasmodium falciparum. In words: In vitro inhibitory activity for Plasmodium falciparum. In kind it is functional, organism-based.
Settings: not given
On to `Cc1cc(C(=N)N)cn2cc(-c3ccc(-c4ccc(C(=N)N)cc4)o3)nc12`, for which the IC50 stood at 88 nM.
For `N=C(N)c1ccc(-c2ccc(-c3cn4c(n3)CCC(C(=N)N)C4)o2)cc1` (stereo not drawn), half-maximal inhibition (IC50) was put at 1200 nM.
On the same count and under the same terms, under `N=C(N)c1ccc(-c2ccc(-c3cn4cc(C(=N)N)ccc4n3)o2)cc1` stands 14 nM; under `N=C(N)c1ccc(-c2cccc(-c3cn4cc(C(=N)N)ccc4n3)c2)cc1`, 107 nM; under `N=C(N)c1ccc(-c2cccc(-c3cn4c(n3)CCC(C(=N)N)C4)c2)cc1` (stereo not drawn), 86 nM.
Still for that read-out and setting: under `CONC(=N)c1ccc(-c2ccc(-c3ccc(C(=N)NOC)cc3)o2)cc1` [PAFURAMIDINE] stands 15.5 nM.
Still for that read-out and setting: with `N=C(NO)c1ccc(-c2ccc(-c3cn4cc(/C(N)=N/O)ccc4n3)o2)cc1` the figure was 1600 nM; with `N=C(N)c1ccc(-c2ccc(-c3cn4cc(C(=N)N)ccc4n3)cc2)cc1`, 43 nM; with `CONC(=N)c1ccc(-c2ccc(-c3cn4cc(C(=N)NOC)ccc4n3)o2)cc1`, 2800 nM.
The compound `CONC(=N)c1ccc(-c2ccc(-c3cn4cc(C(=N)NOC)ccc4n3)cc2)cc1` showed an IC50 of 395 nM.
On the same count and under the same terms, under `Cc1cc(C(=N)N)cn2cc(-c3cccc(-c4ccc(C(=N)N)cc4)c3)nc12` stands 86 nM.
Still for that read-out and setting: under `N=C(NO)c1ccc(-c2ccc(-c3cn4cc(/C(N)=N/O)ccc4n3)cc2)cc1` stands 521 nM.
Turning to `N=C(N)c1ccc(-c2ccc(-c3cn4c(n3)CCC(C(=N)N)C4)cc2)cc1` (stereo not drawn), it took 14 nM to reach half-maximal inhibition (IC50).

In the next assay the test system is Mus musculus. In words: Number of mice (out of 4) cured from Trypanosoma brucei rhodesiense infection which are parasite free for 60 days was determined at p.o. dose of 75 mg/kg. In kind it is functional. The following applies: route oral.
In turn, `CONC(=N)c1ccc(-c2ccc(-c3cn4cc(C(=N)NOC)ccc4n3)cc2)cc1` showed a No. of cures of 0.
With `N=C(NO)c1ccc(-c2ccc(-c3cn4cc(/C(N)=N/O)ccc4n3)cc2)cc1`, the No. of cures is 0.

The next assay deals with Mus musculus. Briefly: In vivo average survival days of mice infected by Trypanosoma brucei rhodesiense was determined for a period of 60 days at p.o. dose of 75 mg/kg. Type of assay: functional. The following applies: route oral.
Regarding `CONC(=N)c1ccc(-c2ccc(-c3cn4cc(C(=N)NOC)ccc4n3)cc2)cc1`, the Survival was 20 days.
The same measure, in the same setting: under `N=C(NO)c1ccc(-c2ccc(-c3cn4cc(/C(N)=N/O)ccc4n3)cc2)cc1` stands 28 days.

The next assay has as its system Mus musculus. In words: Number of mice (out of 4) cured from Trypanosoma brucei rhodesiense infection which are parasite free for 60 days was determined at i.p. dose of 5 mg/kg. Type of assay: functional. The following applies: route intraperitoneal.
The compound `N=C(N)c1ccc(-c2ccc(-c3cn4c(n3)CCC(C(=N)N)C4)o2)cc1` (stereo not drawn) returned a No. of cures of 2.

The subject of another assay is Mus musculus. In words: Number of mice (out of 4) cured from Trypanosoma brucei rhodesiense infection which are parasite free for 60 days was determined at i.p. dose of 20 mg/kg. In kind it is functional. The following applies: route intraperitoneal.
On to `Cc1cc(C(=N)N)cn2cc(-c3ccc(-c4ccc(C(=N)N)cc4)o3)nc12`, for which the No. of cures turned out to be 4.
With `N=C(N)c1ccc(-c2ccc(-c3cn4c(n3)CCC(C(=N)N)C4)o2)cc1` (stereo not drawn), the No. of cures amounted to 4.
As for `N=C(N)c1ccc(-c2ccc(-c3cn4cc(C(=N)N)ccc4n3)o2)cc1`, the No. of cures was found to be 4.
Regarding `N=C(N)c1ccc(-c2cccc(-c3cn4cc(C(=N)N)ccc4n3)c2)cc1`, the No. of cures is on record as 4.
The same measure, in the same setting: under `N=C(N)c1ccc(-c2ccc(-c3ccc(C(=N)N)cc3)o2)cc1` [FURAMIDINE] stands 0; under `N=C(N)c1ccc(-c2ccc(-c3cn4cc(C(=N)N)ccc4n3)cc2)cc1`, 4.
The same measure, in the same setting: under `Cc1cc(C(=N)N)cn2cc(-c3cccc(-c4ccc(C(=N)N)cc4)c3)nc12` stands 3.
Take `N=C(N)c1ccc(OCCCCCOc2ccc(C(=N)N)cc2)cc1` [PENTAMIDINE]: the No. of cures is recorded as 0.

The test system of another assay is Mus musculus. In words: In vivo average survival days of mice infected by Trypanosoma brucei rhodesiense was determined for a period of 60 days at p.o. dose of 100 mg/kg. Type of assay: functional. Particulars: route oral.
With `CONC(=N)c1ccc(-c2ccc(-c3ccc(C(=N)NOC)cc3)o2)cc1` [PAFURAMIDINE], the Survival is greater than 60 days.
The same measure, in the same setting: with `CONC(=N)c1ccc(-c2ccc(-c3cn4cc(C(=N)NOC)ccc4n3)o2)cc1` the figure was greater than 39.5 days.

Another assay has as its system Mus musculus. In words: Number of mice (out of 4) cured from Trypanosoma brucei rhodesiense infection which are parasite free for 60 days was determined at p.o. dose of 50 mg/kg. Type of assay: functional. The following applies: route oral.
Compound `N=C(NO)c1ccc(-c2ccc(-c3cn4cc(/C(N)=N/O)ccc4n3)o2)cc1` displayed a No. of cures of 1.

The subject of another assay is Mus musculus. Briefly: Number of mice (out of 4) cured from Trypanosoma brucei rhodesiense infection which are parasite free for 60 days was determined at i.p. dose of 10 mg/kg. Type of assay: functional. The following applies: route intraperitoneal.
Compound `N=C(N)c1ccc(-c2ccc(-c3cn4c(n3)CCC(C(=N)N)C4)cc2)cc1` (stereo not drawn) gave a No. of cures of 3.

The subject of the next assay is Mus musculus. Briefly: Number of mice (out of 4) cured from Trypanosoma brucei rhodesiense infection which are parasite free for 60 days was determined at p.o. dose of 100 mg/kg. Type of assay: functional. Particulars: route oral.
Compound `CONC(=N)c1ccc(-c2ccc(-c3ccc(C(=N)NOC)cc3)o2)cc1` [PAFURAMIDINE] yielded a No. of cures of 4.
Same read-out and setting: with `CONC(=N)c1ccc(-c2ccc(-c3cn4cc(C(=N)NOC)ccc4n3)o2)cc1` the figure was 2.

The test system of the next assay is Mus musculus. Briefly: In vivo average survival days of mice infected by Trypanosoma brucei rhodesiense was determined for a period of 60 days at p.o. dose of 50 mg/kg. Type of assay: functional. The following applies: route oral.
Consider `N=C(NO)c1ccc(-c2ccc(-c3cn4cc(/C(N)=N/O)ccc4n3)o2)cc1`, for which the Survival was greater than 19.5 days.
